From US11623919B2, “Heterocyclic P2X7 antagonists” (AXXAM S.P.A., priority 2017, dated 2023)

Legend:
Test in all cases: Screen Quest Fluo-8 No Wash Calcium Assay (Bz-ATP evoked Ca2+ influx, FLIPR)
Format in all cases: cell-based
[1] = biological target: T1, P2X7 receptor (Mus musculus, UniProt Q9Z1M0); conditions: mP2X7; HEK-293 cells stably transfected with P2X7 receptor, Bz-ATP at EC80, Fluo-8 NW; potency ranges A-D
T1 construct: mP2X7 (IC50; nM); other: mP2X7; HEK-293 cells stably transfected with P2X7 receptor, Bz-ATP at EC80, Fluo-8 NW; potency
T1 sequence (Q9Z1M0 1-595): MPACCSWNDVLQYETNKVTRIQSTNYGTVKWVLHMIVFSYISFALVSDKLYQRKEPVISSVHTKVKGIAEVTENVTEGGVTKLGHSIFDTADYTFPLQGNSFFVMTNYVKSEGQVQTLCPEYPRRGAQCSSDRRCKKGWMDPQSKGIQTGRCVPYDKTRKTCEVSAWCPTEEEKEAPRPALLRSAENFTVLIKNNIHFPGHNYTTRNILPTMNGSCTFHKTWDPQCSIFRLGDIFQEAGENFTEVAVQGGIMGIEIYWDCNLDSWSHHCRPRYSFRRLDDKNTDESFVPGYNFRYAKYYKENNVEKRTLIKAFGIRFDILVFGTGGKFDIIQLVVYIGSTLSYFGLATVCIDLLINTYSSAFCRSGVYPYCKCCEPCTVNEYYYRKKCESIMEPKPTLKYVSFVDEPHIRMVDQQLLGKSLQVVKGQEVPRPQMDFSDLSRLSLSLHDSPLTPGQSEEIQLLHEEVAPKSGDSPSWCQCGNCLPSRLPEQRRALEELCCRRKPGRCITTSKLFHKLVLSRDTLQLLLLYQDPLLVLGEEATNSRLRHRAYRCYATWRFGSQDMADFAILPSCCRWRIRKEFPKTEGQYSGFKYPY
Method in brief: (§1)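 HEK-293 cells stably expressing P2X7 were loaded with Fluo-8 NW for 1 h at RT, then given compound, and 5 min later Bz-ATP at EC80. Fluorescence was read by FLIPR in low divalent cation buffer (0.3 mM Ca2+, 0 mM Mg2+). IC50 came from percent inhibition relative to reference antagonist A438079.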

[2] = biological target: T2, P2X7 receptor (Rattus norvegicus, UniProt Q64663); conditions: rP2X7; HEK-293 cells stably transfected with P2X7 receptor, Bz-ATP at EC80, Fluo-8 NW; potency ranges A-D
T2 construct: rP2X7 (IC50; nM); other: rP2X7; HEK-293 cells stably transfected with P2X7 receptor, Bz-ATP at EC80, Fluo-8 NW; potency
T2 sequence (Q64663 1-595): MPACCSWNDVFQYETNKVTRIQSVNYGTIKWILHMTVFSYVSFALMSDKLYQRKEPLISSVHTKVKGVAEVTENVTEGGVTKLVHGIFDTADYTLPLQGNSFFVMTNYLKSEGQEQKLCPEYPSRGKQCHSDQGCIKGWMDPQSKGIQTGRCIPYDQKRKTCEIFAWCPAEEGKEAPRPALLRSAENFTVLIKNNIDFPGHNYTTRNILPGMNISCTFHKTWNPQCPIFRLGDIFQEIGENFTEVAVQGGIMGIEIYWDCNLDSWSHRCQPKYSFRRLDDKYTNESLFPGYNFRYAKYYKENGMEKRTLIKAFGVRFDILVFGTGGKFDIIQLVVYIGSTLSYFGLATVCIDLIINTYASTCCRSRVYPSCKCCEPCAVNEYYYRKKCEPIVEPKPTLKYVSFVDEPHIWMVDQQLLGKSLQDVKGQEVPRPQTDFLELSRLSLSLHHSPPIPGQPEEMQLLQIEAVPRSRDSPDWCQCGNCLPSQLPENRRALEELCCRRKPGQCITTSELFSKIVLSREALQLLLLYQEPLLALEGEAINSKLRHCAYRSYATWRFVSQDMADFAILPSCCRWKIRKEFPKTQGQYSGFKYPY
Method in brief: as §1

[3] = biological target: T3, P2X7 receptor (Homo sapiens, UniProt Q99572); set-up: hP2X7 (IC50; nM); other: hP2X7; HEK-293 cells stably transfected with P2X7 receptor, Bz-ATP at EC80, Fluo-8 NW; potency; conditions: hP2X7; HEK-293 cells stably transfected with P2X7 receptor, Bz-ATP at EC80, Fluo-8 NW; potency ranges A-D
T3 sequence (Q99572 1-595): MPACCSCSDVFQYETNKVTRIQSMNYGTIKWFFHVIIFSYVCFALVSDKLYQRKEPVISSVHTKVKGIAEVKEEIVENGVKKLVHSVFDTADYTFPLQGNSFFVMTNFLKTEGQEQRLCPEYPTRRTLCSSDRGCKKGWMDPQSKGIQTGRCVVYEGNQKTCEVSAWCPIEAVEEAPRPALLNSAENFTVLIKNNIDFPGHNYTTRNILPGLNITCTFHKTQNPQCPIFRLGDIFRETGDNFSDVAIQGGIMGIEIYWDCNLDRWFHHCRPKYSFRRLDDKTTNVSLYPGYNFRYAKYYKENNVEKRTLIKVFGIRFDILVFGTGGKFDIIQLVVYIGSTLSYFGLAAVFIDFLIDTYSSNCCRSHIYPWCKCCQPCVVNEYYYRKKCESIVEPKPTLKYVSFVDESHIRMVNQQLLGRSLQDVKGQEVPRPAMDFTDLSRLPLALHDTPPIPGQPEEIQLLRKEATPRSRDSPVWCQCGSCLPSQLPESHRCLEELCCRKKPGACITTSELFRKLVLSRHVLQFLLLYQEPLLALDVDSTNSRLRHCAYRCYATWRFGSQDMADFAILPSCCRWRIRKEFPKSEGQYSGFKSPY
Method in brief: as §1

| Structure (SMILES) | IC50 [1] [nM] | IC50 [2] [nM] | IC50 [3] [nM] |
| --- | --- | --- | --- |
| Cc1nc(C(F)(F)F)ccc1Cn1c(CC2CCC(F)(F)CC2)noc1=O [Example 192, 3-[(4,4-difluorocyclohexyl)methyl]-4-{[2-methyl-6-(trifluoromethyl)-pyridin-3-yl]methyl}-4,5-dihydro-1,2,4-oxadiazol-5-one] | > 10000 | > 10000 | > 10000 |
| O=c1onc(CC2CCC(F)(F)CC2)n1Cc1cncs1 [Example 193, 3-[(4,4-difluorocyclohexyl)methyl]-4-[(1,3-thiazol-5-yl)methyl]-1,2,4-oxadiazol-5(4H)-one] | 1000 to 10000 | 200 to 1000 | 1000 to 10000 |
| O=c1onc(CC2CCC(F)(F)CC2)n1Cc1ncco1 [Example 194, 3-[(4,4-difluorocyclohexyl)methyl]-4-[(1,3-oxazol-2-yl)methyl]-1,2,4-oxadiazol-5(4H)-one] | > 10000 | 1000 to 10000 | 1000 to 10000 |
| Cc1nc(Cn2c(CC3CCC(F)(F)CC3)noc2=O)no1 [Example 196, 3-[(4,4-difluorocyclohexyl)methyl]-4-[(5-methyl-1,2,4-oxadiazol-3-yl)methyl]-1,2,4-oxadiazol-5(4H)-one] | > 10000 | > 10000 | > 10000 |
| Cc1noc(Cn2c(CC3CCC(F)(F)CC3)noc2=O)n1 [Example 197, 3-[(4,4-difluorocyclohexyl)methyl]-4-[(3-methyl-1,2,4-oxadiazol-5-yl)methyl]-1,2,4-oxadiazol-5(4H)-one] | > 10000 | > 10000 | > 10000 |
| O=c1onc(CC2CCC(F)(F)CC2)n1Cn1ccc(C(F)(F)F)n1 [Example 198, 3-[(4,4-difluorocyclohexyl)methyl]-4-{[3-(trifluoromethyl)-1H-pyrazol-1-yl]methyl}-1,2,4-oxadiazol-5(4H)-one] | 1000 to 10000 | 1000 to 10000 | > 10000 |
| O=c1onc(CC2CCC(F)(F)CC2)n1Cc1ccno1 [Example 199, 3-[(4,4-difluorocyclohexyl)methyl]-4-[(1,2-oxazol-5-yl)methyl]-1,2,4-oxadiazol-5(4H)-one] | 1000 to 10000 | 1000 to 10000 | > 10000 |
| Cc1ncsc1Cn1c(CC2CCC(F)(F)CC2)noc1=O [Example 200, 3-[(4,4-difluorocyclohexyl)methyl]-4-[(4-methyl-1,3-thiazol-5-yl)methyl]-1,2,4-oxadiazol-5(4H)-one] | 200 to 1000 | 200 to 1000 | 200 to 1000 |
| Cn1ccnc1Cn1c(CC2CCC(F)(F)CC2)noc1=O [Example 201, 3-[(4,4-difluorocyclohexyl)methyl]-4-[(1-methyl-1H-imidazol-2-yl)methyl]-4,5-dihydro-1,2,4-oxadiazol-5-one] | > 10000 | 1000 to 10000 | > 10000 |
| O=c1onc(CC2CCC(F)(F)C2)n1Cc1c(F)cccc1Cl (stereo not drawn) [Example 205, 4-[(2-chloro-6-fluorophenyl)methyl]-3-[(3,3-difluorocyclopentyl)methyl]-4,5-dihydro-1,2,4-oxadiazol-5-one] | 200 to 1000 | < 200 | < 200 |
| Cc1noc(C)c1Cc1noc(=O)n1Cc1ccc(F)cc1 [Example 208, 3-[(dimethyl-1,2-oxazol-4-yl)methyl]-4-[(4-fluorophenyl)methyl]-4,5-dihydro-1,2,4-oxadiazol-5-one] | > 10000 | 1000 to 10000 | 1000 to 10000 |
| Cc1nn(C)c(C)c1Cc1noc(=O)n1Cc1c(F)cccc1Cl [Example 213, 4-[(2-chloro-6-fluorophenyl)methyl]-3-[(trimethyl-1H-pyrazol-4-yl)methyl]-4,5-dihydro-1,2,4-oxadiazol-5-one] | > 10000 | > 10000 | 1000 to 10000 |
| Cc1nn(C)c(C)c1Cc1noc(=O)n1CC1CCCCC1 [Example 214, 4-(cyclohexylmethyl)-3-[(trimethyl-1H-pyrazol-4-yl)methyl]-4,5-dihydro-1,2,4-oxadiazol-5-one] | 1000 to 10000 | 200 to 1000 | < 200 |
| Cc1ncccc1Cc1noc(=O)n1Cc1ccc(F)cc1 [Example 216, 4-[(4-fluorophenyl)methyl]-3-[(2-methylpyridin-3-yl)methyl]-4,5-dihydro-1,2,4-oxadiazol-5-one] | > 10000 | 1000 to 10000 | 1000 to 10000 |

Second part, the compound after the results:

| IC50 [1] [nM] | IC50 [2] [nM] | IC50 [3] [nM] | Structure (SMILES) |
| --- | --- | --- | --- |
| 200 to 1000 | 200 to 1000 | 200 to 1000 | Cc1cc(Cn2c(CC3CCC(F)(F)CC3)noc2=O)n(C)n1 [Example 195, 3-[(4,4-difluorocyclohexyl)methyl]-4-[(1,3-dimethyl-1H-pyrazol-5-yl)methyl]-1,2,4-oxadiazol-5(4H)-one] |
| < 200 | < 200 | < 200 | O=c1snc(CC2CCC(F)(F)CC2)n1Cc1c(F)cccc1Cl [Example 203, 4-[(2-chloro-6-fluorophenyl)methyl]-3-[(4,4-difluorocyclohexyl)methyl]-4,5-dihydro-1,2,4-thiadiazol-5-one] |
| > 10000 | > 10000 | > 10000 | O=c1onc(CC2CCC(F)(F)C2)n1Cc1ccc(F)cc1 (stereo not drawn) [Example 204, 3-[(3,3-difluorocyclopentyl)methyl]-4-[(4-fluorophenyl)methyl]-4,5-dihydro-1,2,4-oxadiazol-5-one] |
| > 10000 | > 10000 | 1000 to 10000 | Cc1noc(C)c1Cc1noc(=O)n1Cc1c(F)cccc1Cl [Example 209, 4-[(2-chloro-6-fluorophenyl)methyl]-3-[(dimethyl-1,2-oxazol-4-yl)methyl]-4,5-dihydro-1,2,4-oxadiazol-5-one] |
| > 10000 | > 10000 | 1000 to 10000 | Cc1nn(C)c(C)c1Cc1noc(=O)n1Cc1ccc(F)cc1 [Example 212, 4-[(4-fluorophenyl)methyl]-3-[(trimethyl-1H-pyrazol-4-yl)methyl]-4,5-dihydro-1,2,4-oxadiazol-5-one] |
| 1000 to 10000 | 200 to 1000 | < 200 | Cc1nn(C)c(C)c1Cc1noc(=O)n1CC1CCC(F)(F)CC1 [Example 215, 4-[(4,4-difluorocyclohexyl)methyl]-3-[(trimethyl-1H-pyrazol-4-yl)methyl]-4,5-dihydro-1,2,4-oxadiazol-5-one] |
| > 10000 | > 10000 | > 10000 | Cc1ncccc1Cc1noc(=O)n1Cc1c(F)cccc1Cl [Example 217, 4-[(2-chloro-6-fluorophenyl)methyl]-3-[(2-methylpyridin-3-yl)methyl]-4,5-dihydro-1,2,4-oxadiazol-5-one] |
